Experiment [1] deals with T1, Mitochondrial peptide methionine sulfoxide reductase (Bos taurus, UniProt P54149). Format: functional.
The nature of experiment [2]: AlphaScreen signal interference compounds, dose response, artefact control for ARNT-TACC3 interaction inhibitor project, biochemical, luminescence, cherry-pick (AID 651705).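 Further: AlphaScreen bead proximity signal that flags compounds interfering with the detection technology; potency reflects signal decrease which marks the compound as an assay artifact.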 Format: functional.
The target of experiment [3] is T2, Heat shock factor protein 1 (Mus musculus, UniProt P38532).
T2 sequence (P38532 whole entry): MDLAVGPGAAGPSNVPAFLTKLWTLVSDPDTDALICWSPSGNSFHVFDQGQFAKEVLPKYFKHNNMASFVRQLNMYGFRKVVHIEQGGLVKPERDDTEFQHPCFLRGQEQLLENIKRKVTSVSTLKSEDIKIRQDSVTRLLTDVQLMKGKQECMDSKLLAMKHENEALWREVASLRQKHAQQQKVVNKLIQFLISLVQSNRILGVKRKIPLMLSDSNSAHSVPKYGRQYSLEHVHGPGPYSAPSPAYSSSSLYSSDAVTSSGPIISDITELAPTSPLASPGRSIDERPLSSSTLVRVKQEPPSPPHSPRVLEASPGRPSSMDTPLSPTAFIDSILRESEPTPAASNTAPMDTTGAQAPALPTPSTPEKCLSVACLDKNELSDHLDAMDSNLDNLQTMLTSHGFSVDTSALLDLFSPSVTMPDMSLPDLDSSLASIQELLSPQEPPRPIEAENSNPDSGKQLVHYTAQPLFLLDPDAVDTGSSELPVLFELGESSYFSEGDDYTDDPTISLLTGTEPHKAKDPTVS
Nature of the experiment: inhibition of MG132-induced HSE-luciferase signal, confirmation, cell-based, NIH3T3, luminescence, dose retest (AID 2382).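 Further: NIH3T3 fibroblasts with HSF1-driven luciferase reporter stressed by proteasome inhibitor MG132; luminescence from HSF1-driven luciferase expression after 8 hours of MG132 stress.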 Type of experiment: functional.

The target of experiment [4] is T3, Microphthalmia-associated transcription factor (Homo sapiens, UniProt O75030).
T3 sequence (O75030 whole entry): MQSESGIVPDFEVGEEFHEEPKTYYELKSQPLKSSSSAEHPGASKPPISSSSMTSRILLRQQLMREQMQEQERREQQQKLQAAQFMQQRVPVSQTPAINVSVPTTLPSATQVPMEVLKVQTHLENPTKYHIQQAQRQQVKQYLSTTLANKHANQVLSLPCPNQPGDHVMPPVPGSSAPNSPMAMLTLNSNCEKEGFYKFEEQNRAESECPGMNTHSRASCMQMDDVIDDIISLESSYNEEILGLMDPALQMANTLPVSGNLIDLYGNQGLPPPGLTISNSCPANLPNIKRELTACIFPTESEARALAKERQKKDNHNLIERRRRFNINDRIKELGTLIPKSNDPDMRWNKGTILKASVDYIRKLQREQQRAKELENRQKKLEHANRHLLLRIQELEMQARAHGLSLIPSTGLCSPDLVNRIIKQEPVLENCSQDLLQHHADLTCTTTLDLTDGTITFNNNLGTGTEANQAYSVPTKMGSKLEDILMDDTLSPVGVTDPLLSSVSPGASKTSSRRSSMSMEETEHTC
Nature of the experiment: TRPM1 promoter luciferase signal decrease, dose response, MITF inhibitor project, cell-based, SK-MEL-5, cherry-picked, set 3 (AID 493073).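 Further: SK-MEL-5 melanoma cells with luciferase driven by the MITF target TRPM1 promoter.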 Format: functional.

The target of experiment [5] is T4, Interleukin-8 (Homo sapiens, UniProt P10145).
T4 sequence (P10145 whole entry): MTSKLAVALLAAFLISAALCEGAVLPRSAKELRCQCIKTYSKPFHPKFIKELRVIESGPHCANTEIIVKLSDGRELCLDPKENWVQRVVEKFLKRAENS
In words: Dose Response confirmation of uHTS small molecule hits for cystic fibrosis induced NFkb Inhibitors in a PAF-induced IL8 counterscreen. Format: functional. The settings on record: read-out: IC50_Mean. For orientation: Counterscreens check selectivity or assay interference.

Experiment [6] is described as follows: CEM21 lymphoblast cell cytotoxicity, dose response, cytotoxicity control for viral fusion inhibitor project, CellTiter-Glo luminescence, cherry-picked (AID 652042).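 Further: potency for signal decrease meaning cytotoxicity.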 Format: functional, cell-based. (Cellular ATP, detected with luciferase, serves as a proxy for viable cell number.)
Experiment [7] can be described thus: ZM109 Env clade C HIV-1 fusion inhibitors, dose response, HeLa effector, CEM target cells, luciferase, cherry-pick (AID 652058). Type of experiment: functional, cell-based.
Experiment [8] is described as follows: off-target signal loss in HeLa-CEM21 co-culture – HeLa F-luc CTL cells, cherry-picked, counter-screen for HIV-1 Env fusion inhibitor project, dose response (AID 652040).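 Further: potency for signal decrease marking cytotoxic or nonspecific inhibition.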 Type of experiment: functional, cell-based.
Experiment [9] can be described thus: inhibitors of HIV Env-driven cell fusion, dose response, cherry-pick (AID 652057). Format: functional, cell-based.
Experiment [10] has as its target Dual specificity tyrosine-phosphorylation-regulated kinase 1A (Rattus norvegicus, UniProt Q63470). Format: biochemical, Homo sapiens.
The target in experiment [11] is Sphingosine 1-phosphate receptor 2 (Homo sapiens, UniProt O95136). Nature of the experiment: Dose Response Cell Based Assay for Antagonists of the S1P2 Receptor. [Related pubchem assays: 856, 736 ]. Type of experiment: functional.
Sequence of Sphingosine 1-phosphate receptor 2 (O95136 whole entry, the tested form may be a part): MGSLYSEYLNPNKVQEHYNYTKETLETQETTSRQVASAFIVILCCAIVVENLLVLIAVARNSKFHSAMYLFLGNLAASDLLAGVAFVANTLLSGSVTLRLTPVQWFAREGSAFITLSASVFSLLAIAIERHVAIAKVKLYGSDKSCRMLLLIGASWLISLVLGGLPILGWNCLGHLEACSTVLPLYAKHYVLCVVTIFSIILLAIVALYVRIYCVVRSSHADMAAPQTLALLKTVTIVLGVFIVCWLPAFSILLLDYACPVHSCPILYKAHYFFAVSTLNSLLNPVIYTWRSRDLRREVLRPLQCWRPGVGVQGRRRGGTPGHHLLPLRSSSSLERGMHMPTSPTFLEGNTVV
Experiment [12] can be described thus: inhibitors of clade B AD8 Env fusion, dose response, cell-based, cherry-pick (AID 652062).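 Further: luciferase signal from cell-cell fusion driven by HIV-1 clade B AD8 Env; potency is for inhibitors of fusion seen as a drop in luminescence.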 Type of experiment: functional.
For experiment [13], the target named is T4, Interleukin-8. Nature of the experiment: Dose Response confirmation of uHTS small molecule hits for cystic fibrosis induced NFkb Inhibitors in a TNFa-induced IL8 counterscreen. Format: functional. The settings on record: read-out: IC50_Mean.
For the next experiment, the target named is Cytochrome P450 3A4 (Homo sapiens, UniProt P08684).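 Further: CYP3A4 tested as one member of a cytochrome P450 panel screen.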
Sequence of Cytochrome P450 3A4 (P08684 whole entry): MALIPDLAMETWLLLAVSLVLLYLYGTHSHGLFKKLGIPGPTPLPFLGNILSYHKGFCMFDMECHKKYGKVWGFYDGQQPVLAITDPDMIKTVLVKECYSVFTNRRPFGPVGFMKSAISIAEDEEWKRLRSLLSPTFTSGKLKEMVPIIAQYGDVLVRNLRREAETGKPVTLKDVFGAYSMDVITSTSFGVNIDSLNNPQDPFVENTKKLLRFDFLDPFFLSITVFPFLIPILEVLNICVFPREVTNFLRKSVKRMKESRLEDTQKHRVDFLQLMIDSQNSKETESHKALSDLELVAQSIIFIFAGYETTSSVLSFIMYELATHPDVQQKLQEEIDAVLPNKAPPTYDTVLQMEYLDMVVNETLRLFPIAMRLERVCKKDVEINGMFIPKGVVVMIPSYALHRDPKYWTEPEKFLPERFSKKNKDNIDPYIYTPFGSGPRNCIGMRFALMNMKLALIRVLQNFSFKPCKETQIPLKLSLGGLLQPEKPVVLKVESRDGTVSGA
For the next experiment, the target named is T5, Caspase-3 (Homo sapiens, UniProt P42574).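 Further: Dose-response selectivity test against caspase-3 for candidate inhibitors of sentrin-specific proteases (SENPs).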
T5 sequence (P42574 whole entry): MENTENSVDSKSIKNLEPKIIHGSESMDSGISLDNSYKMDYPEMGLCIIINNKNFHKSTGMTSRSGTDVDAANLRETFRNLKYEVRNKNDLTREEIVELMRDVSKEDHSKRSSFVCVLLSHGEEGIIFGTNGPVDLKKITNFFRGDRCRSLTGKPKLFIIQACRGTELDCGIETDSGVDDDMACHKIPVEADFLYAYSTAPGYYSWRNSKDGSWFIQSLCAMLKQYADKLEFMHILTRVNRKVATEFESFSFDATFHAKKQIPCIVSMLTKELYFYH
Type of experiment: functional.

In experiment [14] the target is T6, Sentrin-specific protease 7 (Homo sapiens, UniProt Q9BQF6).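 Further: Luminescence-based dose-response confirmation of ultra-high-throughput screening hits, measuring inhibition of SENP7.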
T6 sequence (Q9BQF6 whole entry): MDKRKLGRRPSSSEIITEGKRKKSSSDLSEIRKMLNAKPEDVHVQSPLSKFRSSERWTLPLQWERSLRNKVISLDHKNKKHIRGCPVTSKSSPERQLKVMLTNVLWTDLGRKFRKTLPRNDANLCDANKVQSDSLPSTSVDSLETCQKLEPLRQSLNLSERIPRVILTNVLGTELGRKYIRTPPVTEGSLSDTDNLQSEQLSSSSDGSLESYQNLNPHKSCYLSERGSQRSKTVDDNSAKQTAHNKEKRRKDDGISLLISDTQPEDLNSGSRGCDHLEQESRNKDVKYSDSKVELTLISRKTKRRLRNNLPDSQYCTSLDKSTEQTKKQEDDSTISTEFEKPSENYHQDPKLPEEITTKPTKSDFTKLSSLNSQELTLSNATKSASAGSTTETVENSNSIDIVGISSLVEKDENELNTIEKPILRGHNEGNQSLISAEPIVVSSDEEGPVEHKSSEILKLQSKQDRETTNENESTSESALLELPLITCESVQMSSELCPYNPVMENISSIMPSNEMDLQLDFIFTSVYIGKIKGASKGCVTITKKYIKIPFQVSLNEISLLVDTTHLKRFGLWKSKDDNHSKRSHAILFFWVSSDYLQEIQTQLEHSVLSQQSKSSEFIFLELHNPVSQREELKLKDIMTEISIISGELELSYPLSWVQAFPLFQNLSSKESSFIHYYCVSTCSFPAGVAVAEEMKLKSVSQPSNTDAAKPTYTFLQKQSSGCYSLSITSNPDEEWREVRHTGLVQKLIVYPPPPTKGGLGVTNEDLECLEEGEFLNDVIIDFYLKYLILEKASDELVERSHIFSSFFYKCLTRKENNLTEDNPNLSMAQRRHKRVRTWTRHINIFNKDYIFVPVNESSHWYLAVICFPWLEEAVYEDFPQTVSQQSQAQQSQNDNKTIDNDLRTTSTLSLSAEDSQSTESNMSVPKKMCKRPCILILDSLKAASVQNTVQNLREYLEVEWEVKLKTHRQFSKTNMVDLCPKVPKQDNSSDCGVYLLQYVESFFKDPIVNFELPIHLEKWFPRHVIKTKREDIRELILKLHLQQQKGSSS
Type of experiment: functional.

For experiment [15], the target named is T7, Sentrin-specific protease 8 (Homo sapiens, UniProt Q96LD8).
T7 sequence (Q96LD8 whole entry): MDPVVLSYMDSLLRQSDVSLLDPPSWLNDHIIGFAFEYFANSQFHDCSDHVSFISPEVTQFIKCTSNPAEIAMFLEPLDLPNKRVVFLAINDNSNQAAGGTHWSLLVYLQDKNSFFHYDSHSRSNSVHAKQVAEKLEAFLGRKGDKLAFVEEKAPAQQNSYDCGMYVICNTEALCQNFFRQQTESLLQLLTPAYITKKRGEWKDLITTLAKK
Format: functional.

Experiment [16] has as its target T1, Mitochondrial peptide methionine sulfoxide reductase. In words: Absorbance-based biochemical high throughput dose response assay for activators of Methionine sulfoxide reductase A (MsrA). Type of experiment: functional.
Experiment [17] concerns the target T8, Sentrin-specific protease 6 (Homo sapiens, UniProt Q9GZR1).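 Further: Luminescence-based dose-response confirmatory assay of SENP6 inhibition, following up an ultra-high-throughput screen.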
T8 sequence (Q9GZR1 whole entry): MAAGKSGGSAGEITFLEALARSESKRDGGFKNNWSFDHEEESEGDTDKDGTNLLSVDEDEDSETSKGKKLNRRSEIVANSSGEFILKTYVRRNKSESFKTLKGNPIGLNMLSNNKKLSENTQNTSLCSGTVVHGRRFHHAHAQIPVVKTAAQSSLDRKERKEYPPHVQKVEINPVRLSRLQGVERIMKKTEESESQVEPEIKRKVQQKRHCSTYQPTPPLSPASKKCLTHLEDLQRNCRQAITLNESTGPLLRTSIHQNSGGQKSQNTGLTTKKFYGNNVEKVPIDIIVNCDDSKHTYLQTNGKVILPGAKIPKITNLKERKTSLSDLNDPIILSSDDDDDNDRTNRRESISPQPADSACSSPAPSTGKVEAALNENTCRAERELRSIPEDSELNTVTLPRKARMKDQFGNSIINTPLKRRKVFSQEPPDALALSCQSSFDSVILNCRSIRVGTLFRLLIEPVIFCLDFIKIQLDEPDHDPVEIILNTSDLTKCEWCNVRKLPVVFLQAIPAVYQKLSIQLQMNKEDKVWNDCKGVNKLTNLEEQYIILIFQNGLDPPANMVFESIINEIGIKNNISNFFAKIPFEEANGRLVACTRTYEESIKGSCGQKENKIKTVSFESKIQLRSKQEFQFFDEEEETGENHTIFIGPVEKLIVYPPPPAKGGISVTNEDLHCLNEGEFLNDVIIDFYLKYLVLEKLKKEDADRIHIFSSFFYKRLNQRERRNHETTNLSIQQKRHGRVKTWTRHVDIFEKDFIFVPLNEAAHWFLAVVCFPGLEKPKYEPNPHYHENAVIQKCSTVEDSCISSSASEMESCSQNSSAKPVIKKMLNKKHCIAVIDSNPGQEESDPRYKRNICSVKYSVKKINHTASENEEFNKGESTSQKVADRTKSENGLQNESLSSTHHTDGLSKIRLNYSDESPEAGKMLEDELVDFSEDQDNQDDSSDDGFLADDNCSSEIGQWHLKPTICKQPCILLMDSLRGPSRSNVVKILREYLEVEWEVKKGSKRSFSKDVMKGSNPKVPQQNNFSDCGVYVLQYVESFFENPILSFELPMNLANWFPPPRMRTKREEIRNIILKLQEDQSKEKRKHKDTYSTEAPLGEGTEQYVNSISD
Type of experiment: functional.

For experiment [18], the target named is T7, Sentrin-specific protease 8. Type of experiment: functional. This is another data set of the same source.
Experiment [19] in a line: THP-1 cell cytotoxicity, cytotoxicity control, set 4 (AID 504911). Format: functional. The settings on record: Mycobacterium tuberculosis.

Activity calls are given as the source filed them.

T1 sequence (P54149 whole entry): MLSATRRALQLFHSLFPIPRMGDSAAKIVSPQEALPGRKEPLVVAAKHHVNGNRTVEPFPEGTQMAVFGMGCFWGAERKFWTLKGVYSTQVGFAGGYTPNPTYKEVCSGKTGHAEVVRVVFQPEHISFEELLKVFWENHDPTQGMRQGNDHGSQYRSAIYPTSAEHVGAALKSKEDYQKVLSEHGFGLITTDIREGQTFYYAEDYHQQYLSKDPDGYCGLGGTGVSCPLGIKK

`O=[N+]([O-])c1cccc(/C=N/n2c(S)nnc2C2CCCCC2)c1`: the IC50 in [1] is 155 µM (inactive).

Take `O=C(CSc1cccc2cccnc12)Nc1ccccc1F`: the AC50 (in general, the concentration at which the activity in the assay is half-maximal) in experiment [2] is 90.5 µM (active).

For the compound `COc1cccc(-c2nnc3n2N=C(C(C)(C)C)CS3)c1`, the EC50 – broadly, the concentration at which the effect is half-maximal – in experiment [3] is 2.96 µM (active). Besides, the AC50 in experiment [4] was 4.82 µM (active); in [6], 8.58 µM (active); in experiment [7], 0.976 µM (active); in experiment [8], 2.95 µM (active); in [9], 1.25 µM (active); in experiment [10], 8.72 µM (active). The AC50 in [12] is 2.3 µM (active); on Cytochrome P450 3A4, 25.1 µM (inconclusive). Also, the IC50 at Interleukin-8 [5] was 4.14 µM (active); in experiment [11], 3.31 µM (active); on Interleukin-8 [13], 42.4 µM (inactive).

Regarding `O=C(OCC(=O)N1CCN(c2ccccc2)CC1)c1ccc([N+](=O)[O-])s1`, the IC50 on Caspase-3 was 10.2 µM (active); in experiment [14] it was 13.8 µM (active); in experiment [15], 5.37 µM (active); in experiment [17] it was 6.71 µM (active); in experiment [18] it was 2.31 µM (active). The EC50 in experiment [16] is 24.8 µM (inactive).

On to `CCSc1nc(C)c(C)c(O)n1`, for which, in experiment [19], the CC50 – broadly, the concentration that lowers cell viability or growth by half – was > 100 µM (active).

Source of the values: ChEMBL document CHEMBL1201862, “PubChem BioAssay data set” (2004).
